{
  "source": "patent US12377056B2",
  "about": "“Cladribine regimen for treating multiple sclerosis” (priority 2006, dated 2025)",
  "key": {"[1]": {"test_system": "patients with relapsing forms of clinically definite multiple sclerosis", "test": "Example 1: oral Cladribine in patients with relapsing forms of MS (MRI brain lesions, safety)", "type": "in vivo, human", "conditions": "for brain lesions (MRI): then maintenance", "text": "Each patient is first examined for normal hepatic, renal, and bone marrow functioning to establish baseline values. Patients are selected from Male or Female, between 18 and 55 years of age who had one or more relapses within the prior 12 months. Female patients are non-pregnant female. […] Patients are monitored to determine whether there is any progression or improvement of brain lesions associated with progression of MS through MRI scans and neurological examination as described in Miller et al., 1996, above; Evans et al., 1997, above; Sipe et al., 1984, above; and Mattson, 2002, above. All patients have a baseline and MRI study (brain or spinal cord, according to localization of the lesions) at month 12. The patient's disability progression and the time for having a first relapse are monitored as well as the proportion of relapse-free patients at 24 months. Lymphocyte markers and monocyte counts are monitored in the patients."}, "[2]": {"test_system": "patients with relapsing form of clinically definite MS who relapsed while taking Rebif®", "test": "Example 2: oral Cladribine added to Rebif in MS patients with a relapse while taking Rebif (MRI brain lesions, safety)", "type": "in vivo, human"}, "[3]": {"test_system": "patients with Chronic Progressive MS and Relapsing-Remitting MS", "conditions": "cited from earlier work"}, "[4]": {"test_system": "patients with primary progressive (PP) or secondary progressive (SP) multiple sclerosis", "conditions": "Phase III; 0.07 mg/kg/day s.c., repeated for 2 or 6 months; cited from earlier work"}, "[5]": {"test_system": "patients with remitting-relapsing multiple sclerosis", "conditions": "oral, 6 monthly courses of 5 days, total dose about 4-5.7 mg/kg; compared with i.v. infusion study (Sipe et al., 1994); cited from earlier work"}, "[6]": {"conditions": "oral 2-CdA cyclodextrin tablets, induction treatment followed by maintenance treatments"}, "[7]": {"conditions": "oral 2-CdA induction and maintenance treatments combined with Rebif 44 mcg s.c. TIW, 96 weeks"}},
  "data": [
    {"smiles": "Nc1nc(Cl)nc2c1ncn2[C@H]1C[C@H](O)[C@@H](CO)O1", "note": "[Cladribine, 2-chloro-2′deoxyadenosine]", "values": [
      {"measurement": "brain lesions (MRI)", "setting": "[1]; Group 2: oral 2-CdA total dose 1.75 mg/kg over 2 months induction", "value": "decrease in brain lesions"},
      {"measurement": "brain lesions (MRI)", "setting": "[1]; Group 3: oral 2-CdA total dose 3.5 mg/kg over 4 months induction", "value": "decrease in brain lesions"},
      {"measurement": "adverse effects", "setting": "[1]; [6]", "value": "no severe adverse effect is observed"},
      {"measurement": "effect of the regimen on brain lesions", "setting": "[1]; [6]", "value": "efficient in decreasing brain lesions"},
      {"measurement": "brain lesions (MRI)", "setting": "[2]; Group 2: low dose cladribine (1.75 mg/kg induction + 1.75 mg/kg maintenance) added to Rebif 44 mcg s.c. TIW", "value": "decrease in brain lesions"},
      {"measurement": "brain lesions (MRI)", "setting": "[2]; Group 3: high dose cladribine (3.5 mg/kg induction + 1.75 mg/kg maintenance) added to Rebif 44 mcg s.c. TIW", "value": "decrease in brain lesions"},
      {"measurement": "adverse effects", "setting": "[2]; [7]", "value": "no severe adverse effect is observed"},
      {"measurement": "effect of the regimen on brain lesions", "setting": "[2]; [7]", "value": "efficient in decreasing brain lesions"},
      {"measurement": "EDSS, SNRS scores and MRI findings", "setting": "[3]; Phase II, 0.1 mg/kg/day 7 days i.v. x 4 months or 0.07 mg/kg/day 5 days s.c. x 6 months", "value": "positive effects"},
      {"measurement": "adverse effects (AEs)", "setting": "[3]; observed with the highest doses (Selby et al., 1998; Beutler et al., 1994)", "value": "increased incidence of infections related to compromised immune function or myelosuppression"},
      {"measurement": "MRI-measured brain lesions", "setting": "[4]", "value": "significant reduction of MRI-measured brain lesions"},
      {"measurement": "side effects", "setting": "[5]", "value": "less severe"}
    ]}
  ]
}
